Data as given in US5268468A, “N-nitrosophenoxybenzenepropanamine and N-1-chloroethyl carbamate intermediates” (Hoechst-Roussel Pharmaceuticals Incorporated, priority 1993, dated 1993).
Counter-ions that a name gives are not always drawn.

System: serotonin uptake in rat whole brain and hypothalamic synaptosomes
Assay: [3H]-Serotonin Uptake in Rat Whole Brain and Hypothalamic Synaptosomes
Format: biochemical, rat (male CR Wistar)
Conditions: rat whole brain or hypothalamic synaptosomes; 50 nM [3H]-5-hydroxytryptamine; 37° C., 5 minutes; pH 7.4; log-probit analysis; read-out: Inhibition of Serotonin Uptake (IC50)
Method: [^3 H]-Serotonin Uptake in Rat Whole Brain
A. Animals: Male CR Wistar rats (100-125 g).
1. Krebs-Henseleit Bicarbonate Buffer, pH 7.4 (KHBB):
Make a 1 liter batch, containing the following salts.
Potassium chloride 0.35 4.7
Calcium chloride 0.14 1.3
Aerate for 60 min. with 95% oxygen/5% carbon dioxide,
2. 0.32 M Sucrose: 21.9 g of sucrose, bring to 200 ml.
3. Serotonin creatinine sulfate 0.1 mM stock solution is
made up in 0.01 N hydrochloric acid. This is used to
dilute the specific activity of radiolabeled
[H^3 ]-5-hydroxytryptamine (serotonin).
4. 5-[1,2-^3 H(N)]-Hydroxytryptamine creatinine sulfate
(Serotonin), specific activity 20-30 Ci/mmol is used.
The final desired concentration of
[H^3 ]-5-hydroxytryptamine in the assay is 50 nM. The
dilution factor is 0.8. Therefore, the KHBB is made up to
contain 62.5 nM [H^3 ]-5-hydroxy-tryptamine.
A) 56.1 μl of 0.1 mM 5-hydroxytryptamine
*B) 0.64 nmole of 5-hydroxytryptamine
5. For most assays, a 1 mM stock solution of the test com-
pound is made up in suitable solvent and serially diluted
such that the final concentration in the assay ranges from
2 × 10^-8 to 2 × 10^-5 M. Seven concentrations
for each assay. Higher or lower concentrations may be
used depending on the potency of the compound.
Male Wistar rats are decapitated and the brain rapidly
removed. […]
scintillation vials, and counted in 10 ml of Liquiscint […]

`CN(N)CCC(Oc1ccc(C(F)(F)F)cc1)c1ccccc1` (stereo not shown) [2-Methyl-2-[3-phenyl-3-[(4-trifluoromethyl)phenoxy]propyl]hydrazine maleate] showed an IC50 of 1.23 µM.
